Earlier results as cited in article PMC10878532, “Sperm Toolbox—A selection of small molecules to study human spermatozoa” (PLOS ONE, 2024).
Where a name gives a salt, the structure may show the parent alone.

tested on: spermatozoa; set-up: method as in per compound as listed in column References of Table 1; settings: summaries of reported effects; ref per compound as listed in Table 1; cited from earlier work

Row | Molecule | Published Phenotype
1 | Nc1nonc1C(=O)c1cccc(OCc2nc3ccccc3[nH]2)c1 [ASI-8] | Blocks soluble adenyl cyclase (sAC)
2 | COc1cc2nc(N(C)CCCNC(=O)C3CCCO3)nc(N)c2cc1OC (stereo not shown) [Alfuzosin] | Interferes with ejaculation
3 | CCCCC/C=C\C/C=C\C/C=C\C/C=C\CCCC(=O)NCCO [Anandamide] | Reduces sperm motility
4 | CC(=O)N1CCC(C(=O)N(CCCN2CCN(Cc3ccc(F)cc3)CC2)c2ccc(C)c(Cl)c2)CC1 [B07 hydrochloride] | Reduction of sperm motility
5 | CC1(C)CC=C(c2ccccc2)c2cc(/C=C/c3ccc(C(=O)O)cc3)ccc21 [BMS-189453] | Interferes with spermatogenesis
6 | Cn1c(=O)c2c(-c3ccccc3)n3c(c2n(C)c1=O)[C@H](c1ccc(Br)o1)Oc1ccc(C(=O)O)cc1-3 [BPO-27] | CTFR inhibitor patent
7 | Oc1c(Cl)cc(Cl)cc1Sc1cc(Cl)cc(Cl)c1O [Bithionol] | Blocks sAC
8 | O=C(O)c1ccc(/C=C2/SC(=S)N(c3cccc(C(F)(F)F)c3)C2=O)cc1 [CTFRinh-172] | Blocks progesterone induced acrosome reaction; blocks sperm hyperactivation; blocks recombinant ZP3 induced acrosome reaction
9 | CCOC(=O)CSc1nc(=O)c(NCC(=O)OC)n[nH]1 [Compound B4] | Reduces sperm motility
10 | OCCN(CCO)c1nc(N2CCCCC2)c2nc(N(CCO)CCO)nc(N3CCCCC3)c2n1 [Dipyridamole] | Enhances sperm motility
11 | CCN(CC)C(=S)SSC(=S)N(CC)CC [Disulfiram] | immotile sperm; spermicidal
12 | COc1ccc2nc([S@@+]([O-])Cc3ncc(C)c(OC)c3C)[nH]c2c1 [Esomeprazole] | Reduces sperm motility
13 | COC(=O)c1c(C)[nH]c(C)c1C(=O)c1ccccc1Cc1ccccc1 [FPL 64176] | Modulates evoked Ca^2+ response
14 | CC(C)C(C(=O)OC(C#N)c1cccc(Oc2ccccc2)c1)c1ccc(Cl)cc1 (stereo not shown) [Fenvalerate] | Blocks progesterone induced acrosome reaction
15 | C=C[C@@]1(C)CC(=O)[C@]2(O)[C@@]3(C)[C@@H](O)CCC(C)(C)[C@@H]3[C@H](O)[C@H](OC(C)=O)[C@@]2(C)O1 [Forskolin] | Stimulates acrosome reaction
16 | CN(C)CCCn1cc(C2=C(c3c[nH]c4ccccc34)C(=O)NC2=O)c2ccccc21 [GF 109203X] | Blocks progesterone induced acrosome reaction; blocks progesterone induced Ca^2+ response
17 | CCc1cc(Nc2nccc(-c3c(-c4ccc(OC)c(C(=O)Nc5c(F)cccc5F)c4)nc4ccccn34)n2)c(OC)cc1N1CCC(N2CCN(S(C)(=O)=O)CC2)CC1 [GSK1904529A] | Inhibition of hyperactivation
18 | COc1cc2ncn(-c3cc(OCc4ccccc4C(F)(F)F)c(C(N)=O)s3)c2cc1OC [GW 843682X] | Enhances sperm motility
19 | O=c1c(-c2ccc(O)cc2)coc2cc(O)cc(O)c12 [Genistein] | Blocks progesterone induced acrosome reaction; blocks progesterone induced Ca^2+ response
20 | Cc1cc2c(C(C)C)c(O)c(O)c(C=O)c2c(O)c1-c1c(C)cc2c(C(C)C)c(O)c(O)c(C=O)c2c1O [Gossypol] | Causes azoospermia

Row | Molecule | Published Phenotype
21 | O=S(=O)(NCCNC/C=C/c1ccc(Br)cc1)c1cccc2cnccc12 [H 89 dihydrochloride] | Evokes Ca^2+ signaling in sperm cells
22 | O=C(c1cccs1)c1no[n+]([O-])c1C(=O)c1cccs1 [HC-056456] | Blocks Ca^2+ and Na^+ entry; blocks onset of hyperactive motility
23 | CO[C@H]1[C@@H](OC)C[C@H](C)[C@@H](OC)C2=CC(=O)C=C(NC(=O)/C(C)=C/C=C\[C@H](OC)[C@@H](OC(N)=O)/C(C)=C/[C@@H]1C)C2=O [Herbimycin a] | Blocks progesterone induced acrosome reaction; blocks progesterone induced Ca^2+ response
24 | Oc1c(Cl)cc(Cl)c(Cl)c1Cc1c(O)c(Cl)cc(Cl)c1Cl [Hexachlorophene] | Reduces sperm motility; blocks sAC
25 | CC(C)Cn1c(=O)n(C)c(=O)c2[nH]cnc21 [IBMX] | Modulates capacitation
26 | CC(C)Cn1cnc2c(N)nc3ccccc3c21 [Imiquimod] | Reduction of sperm motility; only sperm with X chromosome
27 | Cc1sc2c(c1C)C(c1ccc(Cl)cc1)=N[C@@H](CC(=O)OC(C)(C)C)c1nnc(C)n1-2 [JQ1] | Interferes with spermatogenesis; reduces sperm count; reduces motility
28 | COc1cc(SC)ccc1C(=O)N1CCC(Cc2ccccc2)CC1 [JX 401] | Modulates Ca^2+ response
29 | CCCCCCOC(=O)[C@]1(O)C[C@@H]2O[C@@]1(C)n1c3ccccc3c3c4c(c5c6ccccc6n2c5c31)C(=O)NC4 [KT 5720] | Evokes Ca^2+ signaling in sperm
30 | Nc1nc(Cl)cc(N(Cc2cccs2)C2CC2)n1 [LRE1] | Prevents hyperactivation
31 | CC(C)c1ccc2c(c1)CC[C@H]1[C@](C)(CN)CCC[C@]21C [Leelamine hydrochloride] | Modulates P4 evoked Ca^2+ response
32 | CCCCCCCCCCCCCCCCOCC(COCC(F)(F)F)OP(=O)(O)OC (stereo not shown) [MJ33] | Prevents capacitation-associated tyrosine phosphorylation by PKA
33 | COCC(=O)O[C@]1(CCN(C)CCCc2nc3ccccc3[nH]2)CCc2cc(F)ccc2[C@@H]1C(C)C [Mibefradil] | Blocks progesterone induced Ca^2+ response
34 | CCCCN1C[C@H](O)[C@@H](O)[C@H](O)[C@H]1CO [Miglustat] | Interferes with spermatogenesis
35 | CC(C)[C@H]1c2ccc(F)cc2CC[C@@]1(CCN(C)CCCc1nc2ccccc2[nH]1)OC(=O)C1CC1 [NNC 55–0396 dihydrochloride] | Blocks ccl-20 induced Ca^2+ response; Modulates CatSper
36 | N=C(N)c1ccc2cc(OC(=O)c3ccc(N=C(N)N)cc3)ccc2c1 [Nafamostat] | Interferes with liquefaction; reduces sperm motility
37 | O=C(Nc1ccc([N+](=O)[O-])cc1Cl)c1cc(Cl)ccc1O [Niclosamide] | Shape abnormality
38 | O=C(O)c1cccnc1Nc1cccc(C(F)(F)F)c1 [Niflumic acid] | Blocks acrosome reaction induced by recombinant rhZP3
39 | Cc1ccc(S(=O)(=O)c2c(N)n(CC(O)c3ccc([N+](=O)[O-])cc3)c3nc4ccccc4nc23)cc1 (stereo not shown) [Oprea1_544341] | Reduces sperm motility; role of glycolysis in sperm motility
40 | C[C@@H]1O[C@@H](O[C@H]2C[C@@H](O)[C@]3(CO)[C@H]4[C@H](O)C[C@]5(C)[C@@H](C6=CC(=O)OC6)CC[C@]5(O)[C@@H]4CC[C@]3(O)C2)[C@H](O)[C@H](O)[C@H]1O [Ouabain] | Reduces sperm motility

Row | Molecule | Published Phenotype
41 | c1ccc2c(c1)SCc1c-2[nH]c2ccccc12 [PD 146176] | Antagonizing negative effects of ROS on sperm function such as acrosome reaction
42 | CN(c1ccccc1CNc1nc(Nc2ccc3c(c2)CC(=O)N3)ncc1C(F)(F)F)S(C)(=O)=O [PF 431396] | Blocks capacitation
43 | Cc1[nH]c(/C=C2\C(=O)Nc3ccc(S(=O)(=O)Cc4c(Cl)cccc4Cl)cc32)c(C)c1C(=O)N1CCC[C@@H]1CN1CCCC1 [Pha-665752] | Modulates P4 evoked Ca^2+ response
44 | c1cnc2c(c1)ccc1cccnc12 [Phenanthroline] | Inhibit proteolytic activity of PSA
45 | COC(=O)[C@]1(C)CC[C@]2(C)CC[C@]3(C)C4=CC=C5C(=CC(=O)C(O)=C5C)[C@]4(C)CC[C@@]3(C)[C@@H]2C1 [Pristimerin] | Modulates sperm motility; reduces progesterone induced Ca^2+ response
46 | CCOCc1nc2c(N)nc3ccccc3c2n1CC(C)(C)O [Resiquimod] | Reduction of sperm motility; only sperm with X chromosome
47 | [Na+].[Na+].[Na+].[O]=[V]([O-])([O-])[O-] [Sodium orthovanadate] | Blocks progesterone induced acrosome reaction; blocks progesterone induced Ca^2+ response
48 | CC(C)(O)c1ccn2c(-c3ccc(F)c(-c4ccc(F)cc4C#N)c3)cnc2c1F [TP 003] | Enhances sperm motility
49 | C=CC[C@@H]1/C=C(\C)C[C@H](C)C[C@H](OC)[C@H]2O[C@@](O)(C(=O)C(=O)N3CCCC[C@H]3C(=O)O[C@H](/C(C)=C/[C@@H]3CC[C@@H](O)[C@H](OC)C3)[C@H](C)[C@@H](O)CC1=O)[C@H](C)C[C@@H]2OC [Tacrolimus] | Blocks progesterone induced acrosome reaction
50 | COc1cn(-c2ccc(-n3cccn3)cc2F)nc(-c2ccnn2-c2ccccc2)c1=O [Tak-063] | Enhances sperm motility
51 | CCOc1ccccc1OCCN[C@H](C)Cc1ccc(OC)c(S(N)(=O)=O)c1 [Tamsulosin] | Interferes with ejaculation
52 | O=c1sn(-c2cccc3ccccc23)c(=O)n1Cc1ccccc1 [Tideglusib] | Spermicidal; vaginal treatment
53 | Nc1ccc(-c2ccc3ncc4ccc(=O)n(-c5cccc(C(F)(F)F)c5)c4c3c2)cn1 [Torin 2] | Enhances sperm motility
54 | COc1ccc(CCCN2CCC(COC(c3ccccc3)c3ccccc3)CC2)cc1 [UK 78282 hydrochloride] | Modulates Ca^2+ response
55 | O.O.O.OO.OO.[K+].[OH-].[V].c1cnc2c(c1)ccc1cccnc12 [bpV(phen)] | Blocks progesterone induced acrosome reaction; blocks progesterone induced Ca^2+ response
56 | CC(C)(C)c1ccc(S(=O)(=O)Nc2cnc3[nH]c(C(=O)N[C@H]4CCC[C@H]4O)c(-c4ccccc4)c3c2)cc1 [compound 68853496] | Patent; sAC inhibitor
57 | NVP-AEW541 | Inhibition of hyperactivity
58 | Urinastatin (protein, UniProt P02760 206-352, looked up, Inter-alpha-trypsin inhibitor light chain, interferes with liquefaction) Inter-alpha-trypsin inhibitor …: AVLPQEEEGSGGGQLVTEVTKKEDSCQLGYSAGPCMGMTSRYFYNGTSMACETFQYGGCMGNGNNFVTEKECLQTCRTVAACNLPIVRGPCRAFIQLWAFDAVKGKCVLFPYGGCQGNGNKFYSEKECREYCGVPGDGDEELLRFSN | Interferes with liquefaction; reduces sperm motility
